{"source": "patent US6627210B2", "about": "“Compositions containing α-2-adrenergic agonist components” (Allergan, Inc., priority 2000, dated 2003)", "key": {"[1]": {"details": "for Solubility: 23° C., stirred 2 days", "experimental": "Table 1. It will be understood that concentrations of adrenergic agonists other than 0.5% may be used, so long as they have therapeutic activity. Likewise, the temperature may be varied, for example, solubility curves may be performed at 37° C. (98.6° F.). The formulation vehicle was prepared by first dissolving polyvinyl alcohol (PVA) in water. The PVA was added to approximately ⅓ of the required total amount of purified water with constant stirring. The slurry was stirred for 20-30 minutes and then heated to 80-95° C. with constant stirring. The mixture was removed from the heat source within 1 hour after having reached the temperature of 80-90° C. and stirred for an additional 10 minutes to ensure homogeneity (Part I). The other ingredients of the Ophthalmic Solution, except for Brimonidine tartrate, were dissolved in a separate container with an additional ⅓ of the required total amount of purified water (Part II). The PVA mixture (Part I) was then quantitatively transferred to Part II using several rinse volumes of purified water. The solution was adjusted to final volume with purified water without pH adjustment.\nBrimonidine tartrate was weighed and transferred to a 10 mL test tube containing 5 mL of the formulation vehicle described above. The pH of each sample was then adjusted to a desired value using dilute sodium hydroxide and/or dilute hydrochloric acid. The samples were placed in a rack on a stir plate and stirred at high speed to achieve uniform mixing for 2 days; a partition was placed between the rack and the stir plate to prevent any heat diffusion from the stir plate to the samples.\nAt the end of two days of stirring, the pH value of each sample was measured, and then approximately 1 mL of each sample was placed in a micro centrifuge tube (polypropylene) and centrifuged at 4,000 rpm for 10 minutes. The supernatant was filtered through a 1 μm filter unit (Whatman, 13 mm, PTFE). The first 3-4 drops of the filtrate were discarded; the rest of the filtrate was received and diluted quantitatively with HPLC mobile phase. The dilute sample was then injected directly on the HPLC column (Dupont Zorbax, 250 mm×4.6 mm, 5 μm) for Brimonidine tartrate assay in order to quantify the amount of Brimonidine tartrate. A control of 10.05% Brimonidine tartrate was prepared in the formulation vehicle at pH 6.3-6.5 and assayed before (untreated) and after (treated) centrifugation and filtration. This was done to evaluate the potential loss of Brimonidine tartrate in these two steps of the sample preparation. To ensure reproducibility, the study was repeated on consecutive days."}, "[2]": {"details": "for Solubility of Brimonidine tartrate: 0% CMC", "experimental": "The pH-solubility profiles of Brimonidine tartrate in compositions (solutions) containing SECs and oxy-chloro components were determined. Particularly, the effects of sodium carboxymethylcellulose (CMC), an SEC, on the solubility of Brimonidine tartrate at various pH conditions were determined. The various concentrations of CMC tested with Brimonidine tartrate were 0%, 0.056%, 0.17%, 0.5%, 1.5% (w/v), Table III.\nThe samples tested also contained isotonic components, buffer components, and stabilized chlorine dioxide (Purite™), Table III. Sodium carboxymethyl-cellulose, sodium chloride, potassium chloride, calcium chloride dihydrate, and magnesium chloride hexahydrate were USP grade. Boric acid and sodium borate decahydrate were NF grade.\nEach sample (1 through 5) was subjected to a range of pH's from about 7 to about 10. The vials containing the sample solutions were placed on a laboratory rotator and left for equilibration for fifteen days at room temperature (˜21° C.). The sample solutions were filtered using a 25 mm diameter polysulfone cellulose acetate syringe type filter with 0.45 μm pore size. The filtered solutions were assayed for Brimonidine.\nConventional HPLC and detection techniques were used to detect and determine the concentrations of soluble Brimonidine tartrate. […] The solubility is plotted against pH for each CMC concentration. The experimental data points were fitted to a modified Henderson-Hasselbalch equation using a nonlinear least squares routine (Deltagraph version 4.0 DeltaPoint, Inc.), FIG. 1."}, "[3]": {"details": "composition including chlorite, equilibrated ten days", "experimental": "Brimonidine tartrate is added to a test tube containing a composition including chlorite. The test tube was allowed to equilibrate for ten days. Samples obtained from the test tube is analyzed."}}, "note": "Like-named read-outs stand apart in the source and are kept apart here. Marks after values point to notes of the source that are not given here.", "data": [{"substance": "tartrate of 5-bromo-6-(2-imidozolin-2-ylamino) quinoxaline [Brimonidine tartrate]", "values": [{"measurement": "Solubility", "setting": "[1]; Study 1, pH 5.55, Ophthalmic Solution vehicle, theoretical concentration based on sample weight, solution clear", "result": "≧164.4^b % w/v"}, {"measurement": "Solubility", "setting": "[1]; Study 1, pH 5.92, Ophthalmic Solution vehicle", "result": 132.6, "unit": "% w/v"}, {"measurement": "Solubility", "setting": "[1]; Study 1, pH 6.14, Ophthalmic Solution vehicle", "result": 30.4, "unit": "% w/v"}, {"measurement": "Solubility", "setting": "[1]; Study 1, pH 6.57, Ophthalmic Solution vehicle", "result": 7.55, "unit": "% w/v"}, {"measurement": "Solubility", "setting": "[1]; Study 1, pH 7.00, Ophthalmic Solution vehicle", "result": 2.69, "unit": "% w/v"}, {"measurement": "Solubility", "setting": "[1]; Study 1, pH 7.45, Ophthalmic Solution vehicle", "result": 1.17, "unit": "% w/v"}, {"measurement": "Solubility", "setting": "[1]; Study 1, pH 7.83, Ophthalmic Solution vehicle", "result": 0.62, "unit": "% w/v"}, {"measurement": "Solubility", "setting": "[1]; Study 2, pH 5.50, Ophthalmic Solution vehicle, theoretical concentration based on sample weight, solution clear", "result": "≧200.6^b % w/v"}, {"measurement": "Solubility", "setting": "[1]; Study 2, pH 5.92, Ophthalmic Solution vehicle", "result": 160.8, "unit": "% w/v"}, {"measurement": "Solubility", "setting": "[1]; Study 2, pH 6.06, Ophthalmic Solution vehicle", "result": 50.1, "unit": "% w/v"}, {"measurement": "Solubility", "setting": "[1]; Study 2, pH 6.90, Ophthalmic Solution vehicle", "result": 3.19, "unit": "% w/v"}, {"measurement": "Solubility", "setting": "[1]; Study 2, pH 7.40, Ophthalmic Solution vehicle", "result": 1.19, "unit": "% w/v"}, {"measurement": "Solubility", "setting": "[1]; Study 2, pH 7.77, Ophthalmic Solution vehicle", "result": 0.63, "unit": "% w/v"}, {"measurement": "Solubility", "setting": "[1]; Study 2, pH 7.86, Ophthalmic Solution vehicle", "result": 0.58, "unit": "% w/v"}, {"measurement": "Solubility", "setting": "[1]; Study 2, pH 7.88, Ophthalmic Solution vehicle", "result": 0.54, "unit": "% w/v"}, {"measurement": "pH dependence of solubility", "setting": "[1]; formulation vehicles, pH range of 5-8", "result": "highly pH-dependent"}, {"measurement": "Solubility of Brimonidine tartrate", "setting": "[2]; pH 6.68, equilibrated fifteen days at room temperature (~21° C.)", "result": 1.4256, "unit": "%"}, {"measurement": "Solubility of Brimonidine tartrate", "setting": "[2]; pH 7.11, equilibrated fifteen days at room temperature (~21° C.)", "result": 0.2064, "unit": "%"}, {"measurement": "Solubility of Brimonidine tartrate", "setting": "[2]; pH 7.68, equilibrated fifteen days at room temperature (~21° C.)", "result": 0.0786, "unit": "%"}, {"measurement": "Solubility of Brimonidine tartrate", "setting": "[2]; pH 8.50, equilibrated fifteen days at room temperature (~21° C.)", "result": 0.0286, "unit": "%"}, {"measurement": "Solubility of Brimonidine tartrate", "setting": "[2]; pH 10.09, equilibrated fifteen days at room temperature (~21° C.)", "result": 0.0218, "unit": "%"}, {"measurement": "soluble Brimonidine tartrate (FIG. 1)", "setting": "[2]; pH 7.5, 0% CMC", "result": 1000, "unit": "ppm"}, {"measurement": "soluble Brimonidine tartrate (FIG. 1)", "setting": "[2]; pH 7.5, 0.056% CMC", "result": 1300, "unit": "ppm"}, {"measurement": "soluble Brimonidine tartrate (FIG. 1)", "setting": "[2]; pH 7.5, 0.17% CMC", "result": 1300, "unit": "ppm"}, {"measurement": "soluble Brimonidine tartrate (FIG. 1)", "setting": "[2]; pH 7.5, 0.5% CMC", "result": 1600, "unit": "ppm"}, {"measurement": "soluble Brimonidine tartrate (FIG. 1)", "setting": "[2]; pH 7.5, 1.5% CMC", "result": "about 1400 ppm"}, {"measurement": "formation of dimers", "setting": "[3]", "result": "a portion of the Brimonidine tartrate monomer units conjugated to form dimers"}]}]}
